The values below come from patent publication US20060100245A1, “Substituted biphenyl-4-carboxylic acid arylamide analogues” (Neurogen Corporation, priority 2002, published 2006).

The assay addresses T1, human capsaicin receptor (VR1) (Homo sapiens, UniProt Q8NER1).
T1 construct: transfected with the pBK-CMV expression construct encoding the full length human capsaicin receptor; expressed in transfected cells
Briefly: Capsaicin receptor binding assay ([3H]RTX competition). The conditions noted are these: read-out: Ki. The method, boiled down:
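Membranes from HEK293 cells stably expressing full-length human VR1; competition against 60 pM [3H]RTX, 60 min at 37 °C in HEPES/sucrose buffer pH 7.4 with 0.25 mg/ml BSA. Non-specific binding defined with 1 μM unlabelled RTX; alpha1-acid glycoprotein added after termination on ice.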

The structures appear in SMILES notation. Where only a bound is given, the exact number is not on record here.

T1 sequence (Q8NER1 whole entry): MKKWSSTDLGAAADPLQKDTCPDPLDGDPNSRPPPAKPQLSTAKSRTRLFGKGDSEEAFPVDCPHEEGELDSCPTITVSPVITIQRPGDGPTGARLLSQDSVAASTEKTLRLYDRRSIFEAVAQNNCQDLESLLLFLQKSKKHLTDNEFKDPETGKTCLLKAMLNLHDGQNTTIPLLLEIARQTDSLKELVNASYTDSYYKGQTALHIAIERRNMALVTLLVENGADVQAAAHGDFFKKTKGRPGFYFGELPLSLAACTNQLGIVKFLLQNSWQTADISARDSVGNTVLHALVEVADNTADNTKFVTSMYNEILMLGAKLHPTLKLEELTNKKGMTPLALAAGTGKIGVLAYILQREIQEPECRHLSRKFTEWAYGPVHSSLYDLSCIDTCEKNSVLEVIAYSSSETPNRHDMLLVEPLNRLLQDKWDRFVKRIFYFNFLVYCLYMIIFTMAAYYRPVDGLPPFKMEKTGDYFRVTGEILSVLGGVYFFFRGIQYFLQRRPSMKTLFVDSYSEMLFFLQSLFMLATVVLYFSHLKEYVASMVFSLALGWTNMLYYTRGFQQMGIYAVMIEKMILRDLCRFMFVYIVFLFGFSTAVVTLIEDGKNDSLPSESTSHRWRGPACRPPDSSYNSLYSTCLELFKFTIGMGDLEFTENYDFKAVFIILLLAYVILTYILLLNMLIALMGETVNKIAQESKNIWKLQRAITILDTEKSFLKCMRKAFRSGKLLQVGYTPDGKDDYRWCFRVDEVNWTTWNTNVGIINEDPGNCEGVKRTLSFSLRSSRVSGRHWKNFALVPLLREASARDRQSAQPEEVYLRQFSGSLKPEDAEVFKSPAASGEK

Turning to `O=C(Nc1ccc(Cl)cc1)c1ccc(-c2ccccc2F)nc1` [Compound 348, N-(4-Chloro-phenyl)-6-(2-fluoro-phenyl)-nicotinamide], the Ki (in general, a dissociation constant, usually derived from enzyme kinetics or from competition with a known ligand) was below 1000 nM.

For the molecule `CC(C)(C)c1ccc(NC(=O)c2ccc(-c3ncccc3[N+](=O)[O-])cc2)cc1` [Compound 415, N-(4-tert-Butyl-phenyl)-4-(3-nitro-pyridin-2-yl)-benzamide], the Ki is below 1000 nM.

On to `CC(C)(C)c1ccc(NC(=O)c2ccc(-c3ccccc3[N+](=O)[O-])nc2)cc1` [Compound 446, N-(4-tert-Butyl-phenyl)-6-(2-nitro-phenyl)-nicotinamide], for which the Ki is below 1000 nM.

Consider `Cc1cc(NC(=O)c2ccc(-c3ncccc3Cl)cc2)ccc1C(C)C` [Compound 26, 4-(3-Chloro-pyridin-2-yl)-N-(4-isopropyl-3-methyl-phenyl)-benzamide], for which the inhibition constant (Ki) is below 1000 nM.

As to `O=C(Nc1ccc2c(c1)CCC2)c1ccc(-c2cccc(OC(F)(F)F)c2)nc1` [Compound 464, N-Indan-5-yl-6-(3-trifluoromethoxy-phenyl)-nicotinamide], the Ki was below 1000 nM.

In the case of `CCC(C)c1ccc(NC(=O)c2ccc(-c3ncccc3F)cc2)cc1` (stereo not drawn) [Compound 390, N-(4-sec-Butyl-phenyl)-4-(3-fluoro-pyridin-2-yl)-benzamide], the Ki is below 1000 nM.

With `COc1cccc(NC(=O)c2ccc(-c3ccc(C(C)C)cc3)nc2)c1` [Compound 147, 6-(4-Isopropyl-phenyl)-N-(3-methoxy-phenyl)-nicotinamide], the inhibition constant Ki is below 1000 nM.

`CN(C)Cc1cccnc1-c1ccc(C(=O)Nc2ccc(C(C)(C)C)cc2)cc1` [Compound 407, N-(4-tert-Butyl-phenyl)-4-(3-dimethylaminomethyl-pyridin-2-yl)-benzamide]: the Ki was below 1000 nM.

On to `CC(c1ccc(NC(=O)c2ccc(-c3ncccc3Cl)cc2)cc1)C(F)(F)F` (stereo not drawn) [Compound 30, 4-(3-Chloro-pyridin-2-yl)-N-[4-(2,2,2-trifluoro-1-methyl-ethyl)-phenyl]-benzamide], for which the Ki was below 1000 nM.

Turning to `CCCCS(=O)(=O)Nc1cccnc1-c1ccc(C(=O)Nc2ccc(C(C)(C)C)cc2)cc1` [Compound 37, 4-[3-(Butane-1-sulfonylamino)-pyridin-2-yl]-N-(4-eert-butyl-phenyl)-benzamide], the Ki is below 1000 nM.

Consider `CC(C)(C)c1ccc(NC(=O)c2ccc(-c3ccc(O)cc3)nc2)cc1` [Compound 450, N-(4-tert-Butyl-phenyl)-6-(4-hydroxy-phenyl)-nicotinamide], for which the Ki is below 1000 nM.

Turning to `Cc1ccc(C)c(-c2ccc(C(=O)Nc3ccc(C(F)(F)F)cc3)cn2)c1` [Compound 56, 6-(2,5-Dimethyl-phenyl)-N-(4-trifluoromethyl-phenyl)-nicotinamide], the Ki is below 1000 nM.

Take `Cc1ccc(NC(=O)c2ccc(-c3cccc(F)c3)nc2)cc1C` [Compound 239, N-(3,4-Dimethyl-phenyl)-6-(3-fluoro-phenyl)-nicotinamide]: the Ki was below 1000 nM.

Take `CC(C)c1ccc(NC(=O)c2ccc(-c3ccccc3)nc2)cc1` [Compound 385, N-(4-Isopropyl-phenyl)-6-phenyl-nicotinamide]: the Ki was below 1000 nM.

Consider `CC(C)(C)c1ccc(NC(=O)c2ccc(-c3ccccc3Cl)nc2)cc1` [Compound 442, N-(4-tert-Butyl-phenyl)-6-(2-chloro-phenyl)-nicotinamide], for which the Ki is below 1000 nM.

With `O=C(Nc1ccc(Br)c(Cl)c1)c1ccc(-c2cccc(F)c2)nc1` [Compound 318, N-(4-Bromo-3-chloro-phenyl)-6-(3-fluoro-phenyl)-nicotinamide], the Ki is below 1000 nM.

In the case of `CCC(C)c1ccc(NC(=O)c2cnc(-c3ccccc3Cl)cn2)cc1` (stereo not drawn) [Compound 38, 5-(2-Chloro-phenyl)-pyrazine-2-carboxylic acid (4-sec-butyl-phenyl)-amide], the Ki was below 1000 nM.

As for `Cc1ccccc1-c1ccc(C(=O)Nc2ccc(C(C)(C)C)cc2)cn1` [Compound 453, N-(4-tert-Butyl-phenyl)-6-o-tolyl-nicotinamide], the Ki is below 1000 nM.

On to `COc1cccc(NC(=O)c2ccc(-c3ccccc3F)nc2)c1` [Compound 87, 6-(2-Fluoro-phenyl)-N-(3-methoxy-phenyl)-nicotinamide], for which the Ki is below 1000 nM.

For `CC(C)c1ccc(NC(=O)c2ccc(-c3ccccc3F)nc2)cc1` [Compound 89, 6-(2-Fluoro-phenyl)-N-(4-isopropyl-phenyl)-nicotinamide], the Ki is below 1000 nM.

In the case of `CC(C)(C)c1ccc(NC(=O)c2ccc(-c3ccccc3Cl)cc2)cc1` [Compound 15, 2′-Chloro-biphenyl-4-carboxylic acid (4-tert-butyl-phenyl)-amide], the Ki is below 1000 nM.

For `CC(C)(C)c1ccc(NC(=O)c2ccc(-c3ncccc3C=O)cc2)cc1` [Compound 410, N-(4-tert-Butyl-phenyl)-4-(3-formyl-pyridin-2-yl)-benzamide], the Ki was below 1000 nM.

`O=C(Nc1ccc(C(F)(F)F)cc1)c1ccc(-c2ccccc2Cl)nc1` [Compound 78, 6-(2-Chloro-phenyl)-N-(4-trifluoromethyl-phenyl)-nicotinamide]: the Ki was below 1000 nM.

Consider `Cc1cccc(-c2ccc(C(=O)Nc3ccc4sc(C)nc4c3)cn2)c1` [Compound 208, N-(2-Methyl-benzothiazol-5-yl)-6-m-tolyl-nicotinamide], for which the Ki is below 1000 nM.

Turning to `CC(C)(C)c1ccc(NC(=O)c2ccc(-c3nccnc3Cl)cc2)cc1` [Compound 403, N-(4-tert-Butyl-phenyl)-4-(3-chloro-pyrazin-2-yl)-benzamide], the Ki was below 1000 nM.

As to `CC(C)(C)c1ccc(NC(=O)c2cnc(-c3ccccc3Cl)cc2O)cc1` [Compound 441, N-(4-tert-Butyl-phenyl)-6-(2-chloro-phenyl)-4-hydroxy-nicotinamide], the inhibitory constant (Ki) is below 1000 nM.

For `CC(C)(C)c1ccc(NC(=O)c2ccc(-c3ncccc3NS(=O)(=O)c3ccc(F)cc3)cc2)cc1` [Compound 423, N-(4-tert-Butyl-phenyl)-4-[3-(4-fluoro-benzenesulfonylamino)-pyridin-2-yl]-benzamide], the Ki was below 1000 nM.

With `Cc1nc2cc(NC(=O)c3ccc(-c4cccc(F)c4)nc3)ccc2s1` [Compound 125], the Ki is below 1000 nM.

Turning to `Cc1nc(-c2ncccc2C(F)(F)F)ccc1C(=O)Nc1ccc(C(F)(F)F)cc1` [Compound 181, 6-Methyl-3′-trifluoromethyl-[2,2′]bipyridinyl-5-carboxylic acid (4-trifluoromethyl-phenyl)-amide], the inhibitory constant (Ki) was below 1000 nM.

Regarding `O=C(Nc1ccc2c(c1)CCC2)c1ccc(-c2ccccc2F)nc1` [Compound 93, 6-(2-Fluoro-phenyl)-N-indan-5-yl-nicotinamide], the inhibition constant Ki was below 1000 nM.

Take `CC(C)(C)c1ccc(NC(=O)c2ccc(-c3ccccc3N(S(C)(=O)=O)S(C)(=O)=O)nc2)cc1` [Compound 451, N-(4-tert-Butyl-phenyl)-6-[2-(N,N-dimethanesulfonyl)amino-phenyl]-nicotinamide]: the Ki was below 1000 nM.

In the case of `Cc1nc2cc(NC(=O)c3ccc(-c4cccc(OC(F)(F)F)c4)nc3)ccc2s1` [Compound 207, N-(2-Methyl-benzothiazol-5-yl)-6-(3-trifluoromethoxy-phenyl)-nicotinamide], the Ki is below 1000 nM.

With `CC(C)(C)c1ccc(NC(=O)c2ccc(-c3ncccc3Cl)cc2)cc1` [Compound 404, N-(4-tert-Butyl-phenyl)-4-(3-chloro-pyridin-2-yl)-benzamide], the Ki is below 1000 nM.
